Assay results: PMC9977398, “Next-generation membrane-active glycopeptide antibiotics that also inhibit bacterial cell division” (Chemical Science, 2023)

How the values were obtained:
[1] = test system: B. subtilis 1981 GFP-MinD; test: GFP-MinD localization; assay type: cell-based; settings: treatment at the PEC, 15 min
From the text: MinD is a peripheral membrane protein that localizes at the cell poles and is part of the cell division regulation machinery. It has been reported that treatment with membrane-depolarizing agents like valinomycin results in the delocalization of the protein which appears in irregularly distributed spots throughout the cell. Since the compounds depolarise the bacterial membrane, their effect on the localization of the GFP-tagged MinD protein of B. subtilis was investigated. […]
resuspended in prewarmed BMM media. 1:1 BAC light dye was then added to the bacterial suspension and incubated for 5 minutes. The fluorescence in the GFP and Texas red channels was then observed under the microscope. The experiments were performed three times independently and the images are representative of results from three independent experiments.
B. subtilis 1981 GFP-MinD was cultured overnight in BMM.8 Cells were then inoculated in xylose containing BMM instead of glucose to an OD500 of 0.1 to induce expression of the GFP-MinD fusion protein. […]
About 6 μl of sample was immobilized on 1% agarose pad . DIC and fluorescence images were obtained at different time intervals using Nikon Eclipse Ti Microscope equipped with Nikon DS-U3 camera through Plan Apo 100×/1.40 oil objective. […]

B. subtilis = test: Cytoplasmic membrane depolarization assay, DiSC3(5); assay type: cell-based; settings: exponentially growing B. subtilis, 10 μM
From the text: The membrane disruption properties of both VanQbiph (4) and VanQAmC10 (8) were studied to correlate the extent of membrane perturbation and bactericidal activity against both exponentially growing and non-growing bacterial cells. Their ability to depolarize the membrane was monitored using the fluorescent probe DiSC3(5) (3,3′-dipropylthiadicarbocyanine iodide). DiSC3(5) is sensitive to the membrane potential and as it accumulates in the membrane, the fluorescence intensity decreases due to self-quenching. Upon dissipation of membrane potential, an increase in fluorescence is observed due to DiSC3(5) being dispersed in the solution. […]
were added to it the wells containing bacterial suspension. Fluorescence has monitored at excitation wavelength of 535 nm (slit width: 10 nm) and emission wavelength of 617 nm (slit width: 5 nm). As a measure of inner membrane permeabilization the uptake of PI was monitor by the increase in fluorescence for 30-50 min. […]
Mid log phase MRSA were harvested (3500 rpm, 5 min), washed in 5 mM glucose and 5 mM HEPES buffer (pH 7.2) in 1:1 ratio and resuspended in 5 mM HEPES buffer, 5 mM glucose and 100 mM KCl solution in 1:1:1 ratio. […] The fluorescence was monitored at excitation wavelength of 622 nm and emission wavelength of 670 nm. […] As a measure of membrane depolarization fluorescence was monitor for another 35 min. […]

VRSA = test: Time-kill kinetics against VRSA; assay type: cell-based, S. aureus

Row | SMILES | localization of GFP-MinD [1] | time to membrane depolarisation post-treatment (B. subtilis) [min] | increase in bacterial titer between 6 h and 24 h (VRSA; VRSA, 2×MIC, after initial reduction) [log CFU mL^−1] | time to complete eradication (VRSA; VRSA, 6×MIC) [h] | reduction of bacterial titer (VRSA; VRSA, at MIC, 24 h) [log CFU mL^−1] | effect on growth of VRSA (VRSA; 20 μM (sub-MIC))
1 | CCCCCCCCCCNC(=O)C[N+](C)(C)CCCNC(=O)C1NC(=O)C2NC(=O)C(NC(=O)C3NC(=O)C(CC(N)=O)NC(=O)C(NC(=O)C(CC(C)C)NC)C(O)c4ccc(c(Cl)c4)Oc4cc3cc(c4OC3OC(CO)C(O)C(O)C3OC3CC(C)(N)C(O)C(C)O3)Oc3ccc(cc3Cl)C2O)c2ccc(O)c(c2)-c2c(O)cc(O)cc21 (centres unmarked) [VanQAmC10 (8)] | irregular distribution of GFP-labelled MinD across the cells | ≤ 2 | 1 | 24 | 1.9 | 
2 | CN[C@H](CC(C)C)C(=O)N[C@H]1C(=O)N[C@@H](CC(N)=O)C(=O)N[C@H]2C(=O)N[C@H]3C(=O)N[C@H](C(=O)N[C@H](C(=O)O)c4cc(O)cc(O)c4-c4cc3ccc4O)[C@H](O)c3ccc(c(Cl)c3)Oc3cc2cc(c3O[C@@H]2O[C@H](CO)[C@@H](O)[C@H](O)[C@H]2O[C@H]2C[C@](C)(N)[C@H](O)[C@H](C)O2)Oc2ccc(cc2Cl)[C@H]1O [Vancomycin, reference compound] |  |  |  |  |  | initial growth inhibitory effect, followed by resumption of bacterial growth
3 | CNC(CC(C)C)C(=O)NC1C(=O)NC(CC(N)=O)C(=O)NC2C(=O)NC3C(=O)NC(C(=O)NC(C(=O)NCCC[N+](C)(C)Cc4ccc(-c5ccccc5)cc4)c4cc(O)cc(O)c4-c4cc3ccc4O)C(O)c3ccc(c(Cl)c3)Oc3cc2cc(c3OC2OC(CO)C(O)C(O)C2OC2CC(C)(N)C(O)C(C)O2)Oc2ccc(cc2Cl)C1O (centres unmarked) [VanQbiph (4)] | irregular distribution of GFP-labelled MinD across the cells | ≤ 2 |  |  |  | 
